Source: patent US8765748B2, “Indazolyl, benzimidazolyl, benzotriazolyl substituted indolinone derivatives as kinase inhibitors useful in the treatment of cancer” (University Health Network, priority 2007, dated 2014)

Columns and labels:
Assay in all cases: Kinase Selectivity Assay (CEREP, HTRF)
Format in all cases: biochemical
BMX kinase (Etk) = target: T1, BMX kinase (Etk) (Homo sapiens, UniProt P51813); conditions: read-out: % Inhibition at 10 μM Concentration, BMX (Etk)
T1 construct: CEREP, France (ran the assays)
T1 sequence (P51813 1-675): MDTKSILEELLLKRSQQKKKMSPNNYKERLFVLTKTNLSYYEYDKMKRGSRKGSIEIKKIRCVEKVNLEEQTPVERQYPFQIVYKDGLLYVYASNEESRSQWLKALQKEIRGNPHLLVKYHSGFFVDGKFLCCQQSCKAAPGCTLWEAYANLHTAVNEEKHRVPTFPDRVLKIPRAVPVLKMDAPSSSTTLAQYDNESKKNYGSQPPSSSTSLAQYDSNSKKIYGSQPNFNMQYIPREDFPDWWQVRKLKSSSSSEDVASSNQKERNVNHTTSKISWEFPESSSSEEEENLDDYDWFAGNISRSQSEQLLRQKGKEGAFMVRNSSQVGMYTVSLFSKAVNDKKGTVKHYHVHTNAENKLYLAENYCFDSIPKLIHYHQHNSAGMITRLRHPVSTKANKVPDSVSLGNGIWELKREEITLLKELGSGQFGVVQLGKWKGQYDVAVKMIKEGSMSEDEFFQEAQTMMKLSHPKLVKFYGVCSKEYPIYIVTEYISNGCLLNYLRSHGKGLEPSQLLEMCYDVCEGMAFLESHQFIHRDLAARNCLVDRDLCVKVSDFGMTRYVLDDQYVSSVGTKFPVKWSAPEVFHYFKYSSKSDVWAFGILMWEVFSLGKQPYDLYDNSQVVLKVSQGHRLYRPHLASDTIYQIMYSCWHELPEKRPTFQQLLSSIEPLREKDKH
Method: (§1) kinase, ROCK2, RSK2, Src kinase, Syk, and TRKA. The % Inhibition was determined

CHK1 = target: T2, CHK1 (Homo sapiens, UniProt O14757); conditions: read-out: % Inhibition at 10 μM Concentration, CHK1
T2 construct: CEREP, France (ran the assays)
T2 sequence (O14757 1-476): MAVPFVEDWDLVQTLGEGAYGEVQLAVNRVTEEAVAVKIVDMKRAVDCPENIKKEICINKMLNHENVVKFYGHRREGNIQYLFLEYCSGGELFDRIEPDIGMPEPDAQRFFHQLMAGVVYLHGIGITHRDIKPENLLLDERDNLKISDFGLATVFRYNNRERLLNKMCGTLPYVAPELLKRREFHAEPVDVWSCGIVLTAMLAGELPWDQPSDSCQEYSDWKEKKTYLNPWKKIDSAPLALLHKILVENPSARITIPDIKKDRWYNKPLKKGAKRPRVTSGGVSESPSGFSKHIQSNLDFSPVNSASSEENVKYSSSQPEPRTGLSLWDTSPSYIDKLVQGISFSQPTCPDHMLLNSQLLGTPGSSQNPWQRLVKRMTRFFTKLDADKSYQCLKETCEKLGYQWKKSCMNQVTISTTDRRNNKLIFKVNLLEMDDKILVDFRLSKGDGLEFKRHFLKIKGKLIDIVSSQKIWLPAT
Method: as §1

CSK = target: T3, CSK (Homo sapiens, UniProt P41240); conditions: read-out: % Inhibition at 10 μM Concentration, CSK
T3 construct: CEREP, France (ran the assays)
T3 sequence (P41240 whole entry): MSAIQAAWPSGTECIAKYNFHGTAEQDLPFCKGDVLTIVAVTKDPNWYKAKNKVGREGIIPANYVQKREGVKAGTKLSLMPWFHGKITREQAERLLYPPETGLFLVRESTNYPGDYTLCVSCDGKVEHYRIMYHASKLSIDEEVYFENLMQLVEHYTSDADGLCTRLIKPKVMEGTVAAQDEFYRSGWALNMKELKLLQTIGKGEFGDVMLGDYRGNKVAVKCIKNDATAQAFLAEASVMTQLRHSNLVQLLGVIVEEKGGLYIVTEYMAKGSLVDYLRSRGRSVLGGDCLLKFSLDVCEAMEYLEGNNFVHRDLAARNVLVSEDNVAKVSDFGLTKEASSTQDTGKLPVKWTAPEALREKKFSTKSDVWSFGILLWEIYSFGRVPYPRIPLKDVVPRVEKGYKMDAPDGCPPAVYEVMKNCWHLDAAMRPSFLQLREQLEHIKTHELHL
Method: as §1

EphB4 kinase = target: T4, EphB4 kinase (Homo sapiens, UniProt P54760); conditions: read-out: % Inhibition at 10 μM Concentration, EphB4
T4 construct: CEREP, France (ran the assays)
T4 sequence (P54760 16-987): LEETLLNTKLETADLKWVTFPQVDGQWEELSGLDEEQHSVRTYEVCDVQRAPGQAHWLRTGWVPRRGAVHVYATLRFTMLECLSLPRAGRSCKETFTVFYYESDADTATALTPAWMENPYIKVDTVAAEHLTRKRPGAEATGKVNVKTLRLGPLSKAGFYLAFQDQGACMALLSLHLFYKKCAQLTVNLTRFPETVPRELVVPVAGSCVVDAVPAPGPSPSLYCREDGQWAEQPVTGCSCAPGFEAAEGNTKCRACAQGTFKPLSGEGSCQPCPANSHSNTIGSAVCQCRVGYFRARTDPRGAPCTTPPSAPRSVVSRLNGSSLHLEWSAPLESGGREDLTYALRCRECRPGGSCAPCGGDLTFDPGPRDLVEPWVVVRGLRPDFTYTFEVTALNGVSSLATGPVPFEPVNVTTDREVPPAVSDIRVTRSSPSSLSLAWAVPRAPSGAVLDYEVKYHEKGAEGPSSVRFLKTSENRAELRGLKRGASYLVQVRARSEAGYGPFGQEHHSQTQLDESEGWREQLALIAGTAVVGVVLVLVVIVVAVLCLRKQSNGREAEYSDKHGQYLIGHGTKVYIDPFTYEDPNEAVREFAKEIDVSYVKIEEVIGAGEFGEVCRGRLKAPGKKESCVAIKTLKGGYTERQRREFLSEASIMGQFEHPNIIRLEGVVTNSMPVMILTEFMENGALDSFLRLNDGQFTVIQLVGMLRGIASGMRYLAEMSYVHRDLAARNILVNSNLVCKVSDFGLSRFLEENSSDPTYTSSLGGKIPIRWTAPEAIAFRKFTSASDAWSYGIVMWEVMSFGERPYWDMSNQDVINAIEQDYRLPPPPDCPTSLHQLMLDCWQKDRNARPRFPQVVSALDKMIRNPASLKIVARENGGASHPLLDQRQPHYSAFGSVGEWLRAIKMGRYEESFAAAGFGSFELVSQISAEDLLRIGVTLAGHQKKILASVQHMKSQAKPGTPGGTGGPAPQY
Method: as §1

IGF1R kinase = IGF1R kinase (Homo sapiens, UniProt P08069); conditions: read-out: % Inhibition at 10 μM Concentration, IGF1R
Sequence of IGF1R kinase (P08069 31-1367): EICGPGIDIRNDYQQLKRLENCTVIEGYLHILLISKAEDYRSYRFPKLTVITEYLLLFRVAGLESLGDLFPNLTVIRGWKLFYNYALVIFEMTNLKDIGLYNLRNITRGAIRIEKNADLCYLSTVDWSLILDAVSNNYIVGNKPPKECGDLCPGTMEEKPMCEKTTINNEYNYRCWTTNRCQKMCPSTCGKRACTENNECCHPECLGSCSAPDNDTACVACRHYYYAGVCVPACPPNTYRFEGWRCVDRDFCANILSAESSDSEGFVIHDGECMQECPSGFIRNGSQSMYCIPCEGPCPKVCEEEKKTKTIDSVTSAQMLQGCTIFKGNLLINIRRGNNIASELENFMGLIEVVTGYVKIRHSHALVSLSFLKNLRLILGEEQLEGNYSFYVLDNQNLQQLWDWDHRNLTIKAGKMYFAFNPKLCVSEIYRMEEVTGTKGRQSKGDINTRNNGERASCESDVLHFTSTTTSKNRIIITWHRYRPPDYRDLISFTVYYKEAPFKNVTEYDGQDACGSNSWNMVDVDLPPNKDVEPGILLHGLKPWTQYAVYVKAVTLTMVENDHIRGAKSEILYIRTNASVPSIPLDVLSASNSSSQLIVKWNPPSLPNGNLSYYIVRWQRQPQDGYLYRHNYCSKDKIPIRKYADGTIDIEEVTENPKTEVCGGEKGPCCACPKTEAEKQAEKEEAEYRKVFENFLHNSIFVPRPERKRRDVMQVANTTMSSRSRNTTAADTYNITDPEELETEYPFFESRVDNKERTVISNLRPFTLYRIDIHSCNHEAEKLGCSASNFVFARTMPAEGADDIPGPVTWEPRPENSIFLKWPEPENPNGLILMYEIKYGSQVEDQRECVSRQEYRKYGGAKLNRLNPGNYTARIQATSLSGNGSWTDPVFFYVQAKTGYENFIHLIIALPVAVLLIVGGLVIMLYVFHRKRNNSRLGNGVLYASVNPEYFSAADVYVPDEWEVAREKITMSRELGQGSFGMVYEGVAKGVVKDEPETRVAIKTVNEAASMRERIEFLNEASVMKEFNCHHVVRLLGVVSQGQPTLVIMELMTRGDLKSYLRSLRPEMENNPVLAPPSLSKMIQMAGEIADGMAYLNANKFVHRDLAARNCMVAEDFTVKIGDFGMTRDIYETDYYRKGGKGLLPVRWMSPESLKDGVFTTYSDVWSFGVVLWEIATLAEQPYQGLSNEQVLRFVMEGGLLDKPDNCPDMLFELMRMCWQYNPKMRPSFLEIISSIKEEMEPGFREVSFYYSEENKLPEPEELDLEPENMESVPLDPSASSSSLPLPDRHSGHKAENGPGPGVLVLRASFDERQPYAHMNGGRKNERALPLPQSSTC
Method: as §1

JNK 2 = JNK 2 (Homo sapiens, UniProt P45984); conditions: read-out: % Inhibition at 10 μM Concentration, JNK 2
Sequence of JNK 2 (P45984 whole entry): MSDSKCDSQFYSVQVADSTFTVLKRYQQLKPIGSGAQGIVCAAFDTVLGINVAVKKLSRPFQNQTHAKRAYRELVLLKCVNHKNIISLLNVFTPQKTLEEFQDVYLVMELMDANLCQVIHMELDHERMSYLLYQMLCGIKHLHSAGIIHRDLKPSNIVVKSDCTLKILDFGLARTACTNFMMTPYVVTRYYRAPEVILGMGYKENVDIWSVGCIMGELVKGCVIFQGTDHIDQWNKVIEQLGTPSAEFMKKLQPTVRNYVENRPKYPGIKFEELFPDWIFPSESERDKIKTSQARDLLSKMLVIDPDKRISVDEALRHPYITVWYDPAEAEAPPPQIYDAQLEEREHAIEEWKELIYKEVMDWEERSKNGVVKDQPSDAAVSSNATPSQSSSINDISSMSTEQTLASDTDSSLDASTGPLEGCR
Method: as §1

PKA = PKA (Homo sapiens, UniProt P17612); conditions: read-out: % Inhibition at 10 μM Concentration, PKA
Method: as §1

| SMILES | inhibition at 10 µM (BMX kinase (Etk)) [%] | inhibition at 10 µM (CHK1) [%] | inhibition at 10 µM (CSK) [%] | inhibition at 10 µM (EphB4 kinase) [%] | inhibition at 10 µM (IGF1R kinase) [%] | inhibition at 10 µM (JNK 2) [%] | inhibition at 10 µM (PKA) [%] |
| --- | --- | --- | --- | --- | --- | --- | --- |
| O=C1Nc2ccccc2/C1=C\c1ccc2c(/C=C/c3ccccc3Cl)n[nH]c2c1 [Example A60, (E)-3-((3-((E)-2-chlorostyryl)-1H-indazol-6-yl)methylene)indolin-2-one] | 18 | -1 | 17 | -14 | 81 | 3 | 7 |
| O=C1Nc2ccccc2C1=Cc1ccc2c(/C=C/c3ccccn3)n[nH]c2c1 (mixture of isomers) [Example A41, (E and Z)-3-((3-((E)-2-(pyridin-2-yl)vinyl)-1H-indazol-6-yl)methylene)indolin-2-one] | 53 | 7 | 86 | 85 | 43 | 52 | -4 |
| COc1ccc2c(c1)C(=Cc1ccc3c(-c4ccc(N5CCN(C)CC5)nc4)n[nH]c3c1)C(=O)N2 (mixture of isomers) [Example A97, (E and Z)-5-methoxy-3-((3-(6-(4-methylpiperazin-1-yl)pyridin-3-yl)-1H-indazol-6-yl)methylene)indolin-2-one] | 9 | 3 | 51 | 6 | 4 | 14 | 0 |
| O=C1Nc2ccccc2/C1=C\c1ccc2[nH]nnc2c1 [Example A1, (E)-3-((1H-benzo[d][1,2,3]triazol-5-yl)methylene)indolin-2-one] |  | -6 | 8 | 5 | 7 | 13 | 9 |
| O=C1Nc2ccccc2/C1=C\c1ccc2cn[nH]c2c1 [Example A5, (E)-3-((1H-indazol-6-yl)methylene)indolin-2-one] | -3 | -2 | 5 | -5 | -4 | 14 | -1 |
